Reference: ChEMBL document CHEMBL1126525, “Synthesis and DNA cleaving properties of hybrid molecules containing propargylic sulfones and minor groove binding lexitropsins” (Bioorg Med Chem Lett, 1993)

Each compound was assayed on Nucleic Acid (assay: Compound was evaluated for its binding affinity constant to calf thymus DNA). Details: Bos taurus.
Format: nucleic-acid assay

| Binding affinity | SMILES |
| --- | --- |
| 46000 M⁻¹ | O=S(=O)(CC#CCO)c1cccc2ccccc12 |
| 89000 M⁻¹ | COC(=O)c1cc(NC(=O)c2cc(NC(=O)c3cc(NC(=O)c4cc(S(=O)(=O)CC#CCO)cc5ccccc45)cn3C)cn2C)cn1C |
| 720000 M⁻¹ | COC(=O)c1cc(NC(=O)c2cc(NC(=O)c3cc(NC(=O)c4cccc5c(S(=O)(=O)CC#CCO)cccc45)cn3C)cn2C)cn1C |
